Experimental data published in patent publication US20260091097A1, “COMBINATION TREATMENT REGIMES FOR TREATING CANCER” (Barinthus Biotherapeutics North America, Inc., priority 2022, published 2026).

Tests used:
Assay type in all cases: in vivo, mouse
[1] = tested on: neoAg-specific CD8+ T cells; assay: Flow cytometry of tetramer+ CD8+ T cells after SNP vaccination; details: IV administration after SNP-SC prime, still with anti-tumor efficacy
Experimental: For T cell tetramer analysis, cells were assessed for viability with LIVE/DEAD Fixable Blue Dead Cell Stain Kit (Invitrogen) in PBS containing 50 nM dasatinib (STEMCELL Technologies) for 30 min at room temperature. Samples were then washed and blocked with anti-CD16/CD32 (BD Biosciences). Cells were then stained with fluorescently conjugated tetramer in cell staining buffer (PBS and 2% FCS) containing 50 nM dasatinib to enhance staining. Cells were simultaneously stained with the following surface antibodies to: CD8 (clone 53-6.7), PD-1 (clone 29F.A12), Tim-3 (clone RMT3-23), CD44 (clone IM7), CD39 (clone Duha59), and NKG2A (clone 16A11) purchased from BioLegend and CD4 (clone RM4-4) purchased from BD Biosciences. After a 1-h incubation at 4° C., cells were washed twice in cell staining buffer, fixed and permeabilized using the FoxP3 transcription factor staining buffer set (eBioscience). […]
To assess whether there are differences in the magnitude of neoAg-specific CD8^+ T cells after SNP-SC or SNP-IV boost, whole blood was sampled on day 21, a week after the boost and measured the tetramer^+ population by flow cytometry (FIG. 1G). […]
As markers of exhaustion and antigen experience on CD8^+ T cells are important for improving the therapeutic effects of immune checkpoint blockade, the expression of PD-1, TIM-3 and NKG2A post vaccination were assessed. […]

cDC1s = assay: Flow cytometry of DC numbers and maturation after vaccination; details: IV route; comparable to SNP-IV
Experimental: For the mononuclear phagocyte uptake analysis, cells were assessed for viability with the LIVE/DEAD Fixable Blue Dead Cell Stain Kit for 10 min at room temperature. After FcR blocking, cells were stained for 20 minutes at room temperature with the following surface antibodies: NK1.1 (clone PK136), CD19 (clone 1D3), CD3 (clone 145-2C11), Ly6G (clone 1A8), CD45 (clone 30-F11), Siglec-H (clone 440c), CD86 (clone GL1), CD11c (clone L3), CD80 (clone 16-10A1), B220 (clone RA3-6B2), CD64 (clone X54-5/7.1), CD11b (clone MI/70) and Ly6C (clone AL-21) purchased from BD Biosciences, CCR7 (clone 4B12), MHC class II (I-A/I-E, clone M5/114.15.2), CD169 (clone 3D6.112) and XCR1 (clone ZET) purchased from BioLegend, and CD172a (clone P84) from Thermo Fisher Scientific. The stain was washed off and cells were then fixed in 0.5% PFA in PBS until they were acquired on an LSRFortessa X50 (BD Biosciences) using the FACSDiva software v8.0.1 (BD Biosciences).
Given the systemic distribution of vaccine after SNP-IV but not SNP-SC, the levels of pro-inflammatory cytokines in the sera of mice were assessed at 6 hours after vaccination (FIG. 3F). High levels of systemic IFNα and IL-12 were measured by ELISAs after SNP-IV, especially at the higher dose of 32 nmol that is used in the therapeutic studies, compared to SNP-SC (FIG. 3F). […]

MC38 tumors = assay: Therapeutic MC38 tumor model, SNP-7/8a prime day 7 and boost day 14 together with anti-PD-L1; details: SNP-SC (Reps1) prime, IV boost 7 days later without tumor antigen
Experimental: For each tumor implantation, a frozen cell aliquot was thawed and cultured in MC38 media at 37° C. and 5% CO2, passaged once and collected using trypsin EDTA (Gibco). Then, […] in sterile PBS per mouse were implanted subcutaneously on the right flank. Tumors were measured twice a week using digital calipers. Tumor volume was estimated using the formula: (tumor volume=short×short×long/2). Animals were killed when tumors surpassed 1,000 mm^3.
Mice were implanted with MC38 tumors on the subcutaneous flank and were treated on day 7 (prime) and day 14 (boost) with SNP-7/8a containing Reps1, an MC38 neoAg, together with anti-PD-L1 (FIG. 1A). […] To confirm and extend these findings in a different tumor model, mice were implanted with TC-1 tumors and treated with SNP-7/8a containing HPV E6 antigen.
To assess the requirement for antigen at the time of boost, mice were primed with SNP-SC containing Reps1, followed by SNP-IV containing an irrelevant antigen (FIG. 1E).

polyIC:LC
CD8+ T cell responses compared to the other vaccinated groups [1]: ten-fold lower
DC maturation in the spleen and tumor-draining LN (cDC1s): able to induce DC maturation
Tumor growth (MC38 tumors): significantly mediate tumor regression and prolong survival
